Target: Synaptic vesicular amine transporter (Homo sapiens) (UniProt Q05940)
Test: SLC18A2 vesicular uptake inhibitors, dose response (AID 1794817)
Settings: HEK-293 SLC18A2 OE, FFN206 uptake fluorescence

Chain of Synaptic vesicular amine transporter (Homo sapiens) (Q05940 whole entry, looked up): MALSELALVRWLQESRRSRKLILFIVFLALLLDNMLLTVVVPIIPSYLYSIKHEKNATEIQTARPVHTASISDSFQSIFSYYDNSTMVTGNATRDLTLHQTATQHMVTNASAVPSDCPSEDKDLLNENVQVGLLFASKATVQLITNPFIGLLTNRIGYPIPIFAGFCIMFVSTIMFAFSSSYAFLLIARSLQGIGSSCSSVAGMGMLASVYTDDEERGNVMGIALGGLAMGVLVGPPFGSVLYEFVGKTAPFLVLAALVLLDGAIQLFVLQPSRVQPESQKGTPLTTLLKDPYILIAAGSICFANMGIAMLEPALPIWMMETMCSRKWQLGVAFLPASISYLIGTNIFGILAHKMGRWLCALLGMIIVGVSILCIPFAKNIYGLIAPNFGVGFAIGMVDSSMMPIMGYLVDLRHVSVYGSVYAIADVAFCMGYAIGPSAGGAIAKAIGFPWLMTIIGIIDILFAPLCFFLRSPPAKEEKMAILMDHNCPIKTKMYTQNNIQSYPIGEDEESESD

Compound: COc1cc2c(cc1OC)C1CC(=O)C(CC(C)C)CN1CC2 (configuration not stated)
- IC50: 19.8 nM

Compound: CNc1ccc2c(CCN)cc(=O)oc2c1
- IC50: 3560 nM

— PubChem BioAssay AID1794817
